Activity calls are given as the source filed them.
Legend:
HeLa = test: HeLa cell cytotoxicity, dose response, cytotoxicity control, ATP luminescence, cherry-pick samples (AID 687004); assay type: functional, cell-based; conditions: Homo sapiens
[1] = cytotoxicity toward NIH3T3 fibroblasts, dose response, counter-screen, cell-based, ATP luminescence, mouse fibroblasts (AID 2010); assay type: functional; conditions: NIH3T3;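 note: cells exposed to compound for about 90 hours before reading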
[2] = inhibitors of intracellular T. cruzi replication, confirmation, NIH3T3 host cells, beta-gal luminescence (AID 2044); assay type: functional, cell-based;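 note: intracellular parasites grown in NIH/3T3 mouse fibroblasts as host cells; luminescent beta-galactosidase reporter signal from transgenic T. cruzi replicating inside host cells; inhibitors lower the luminescence signal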
[3] = HepG2 cell cytotoxicity, dose response, cytotoxicity control, plate reader, cherry-pick, antagonist series (AID 743416); assay type: functional, cell-based
[4] = LGR2 antagonists, dose response, cell-based, HEK293, CRE-luciferase reporter, cherry pick, set 2 (AID 743343); assay type: functional;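 note: transfected cells were stimulated with diluted bursicon conditioned medium after compound addition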
[5] = Shn3 3'UTR reporter inhibitors, dose response, cell-based, Clone20 osteoblasts, firefly luciferase, cherry-picked (AID 624132); assay type: functional;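 note: firefly luciferase luminescence from reporter carrying the Shn3 3'UTR in osteoblasts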
Paired box protein Pax-8 = Paired box protein Pax-8 (Homo sapiens, UniProt Q06710); test: inhibitors of PAX8-driven TPO luciferase reporter, dose response, RMG-I cells, cherry-pick (AID 687027); assay type: functional, cell-based;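 note: luciferase reporter driven by Pax8 target thyroperoxidase promoter measured by SteadyGlo luminescence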
Chain of Paired box protein Pax-8 (Q06710 whole entry): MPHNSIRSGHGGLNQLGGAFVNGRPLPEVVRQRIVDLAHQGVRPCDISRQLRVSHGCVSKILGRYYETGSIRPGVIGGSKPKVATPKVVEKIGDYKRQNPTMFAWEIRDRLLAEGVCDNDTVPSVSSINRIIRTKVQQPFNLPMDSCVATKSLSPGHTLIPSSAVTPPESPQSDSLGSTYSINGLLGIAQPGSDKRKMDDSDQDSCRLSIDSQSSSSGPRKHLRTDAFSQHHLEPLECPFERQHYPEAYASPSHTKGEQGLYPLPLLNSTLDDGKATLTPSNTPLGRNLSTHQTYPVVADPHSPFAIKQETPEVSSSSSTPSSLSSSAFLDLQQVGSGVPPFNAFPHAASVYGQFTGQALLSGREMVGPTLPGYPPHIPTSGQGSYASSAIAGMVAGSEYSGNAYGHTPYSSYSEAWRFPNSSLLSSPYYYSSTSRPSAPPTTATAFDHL

[6] = HepG2 cell cytotoxicity, dose response, cytotoxicity control for Shn3 inhibitor project, CellTiter-Glo, cherry-picked (AID 624134); assay type: functional, cell-based
[7] = A549 cell cytotoxicity, dose response, cytotoxicity control, plate reader, cherry-pick, antagonist series (AID 743412); assay type: functional, cell-based
[8] = off-target signal loss in HeLa-CEM21 co-culture – HeLa F-luc CTL cells, cherry-picked, counter-screen for HIV-1 Env fusion inhibitor project, dose response (AID 652040); assay type: functional, cell-based;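 note: potency for signal decrease marking cytotoxic or nonspecific inhibition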
[9] = ZM109 Env clade C HIV-1 fusion inhibitors, dose response, HeLa effector, CEM target cells, luciferase, cherry-pick (AID 652058); assay type: functional, cell-based
[10] = MC4R antagonists, dose response, counter-screen for LGR2 antagonist project, cell-based, plate reader, cherry pick (AID 743444); assay type: functional;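 note: transfected HEK 293 cells stimulated with alpha-MSH peptide; potency of inhibitors of the alpha-MSH evoked signal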
[11] = inhibitors of HIV Env-driven cell fusion, dose response, cherry-pick (AID 652057); assay type: functional, cell-based
[12] = inhibitors of clade B AD8 Env fusion, dose response, cell-based, cherry-pick (AID 652062); assay type: functional;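 note: luciferase signal from cell-cell fusion driven by HIV-1 clade B AD8 Env; potency is for inhibitors of fusion seen as a drop in luminescence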
[13] = CEM21 lymphoblast cell cytotoxicity, dose response, cytotoxicity control for viral fusion inhibitor project, CellTiter-Glo luminescence, cherry-picked (AID 652042); assay type: functional, cell-based;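 note: potency for signal decrease meaning cytotoxicity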
[14] = HepG2 cell cytotoxicity, dose response, cytotoxicity control, ATP luminescence, cherry-pick, activator set 2 (AID 1053143); assay type: functional, cell-based
[15] = HEK293T cytotoxicity, dose response, cytotoxicity control for miR-122 modulator project, cell-based, inhibitor set, cherry-pick, set 2 (AID 720697); assay type: functional
[16] = HEK293T cytotoxicity, dose response, cytotoxicity control for miR-122 modulator project, cell-based, activator set, cherry-pick (AID 720690); assay type: functional;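 note: HEK293T human cells scored for general mammalian cytotoxicity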
[17] = miR-122 activators in hepatoma reporter cells, dose response, cell-based, Huh7 psiCHECK-miR122, Renilla luciferase, cherry-picked (AID 651956); assay type: functional;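 note: huh7 hepatoma cells stably carrying a psiCHECK-2 miR-122 sensor plasmid; renilla luciferase signal reporting endogenous miR-122 activity after 48 h compound exposure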
H4 = test: Luminescence Cell-Based Dose Response HTS to Identify Activators of 5'UTR Stem-Loop Driven Prion Protein mRNA Translation in H4 Neuroglioblastoma Cells. [Related pubchem assays: 1829 (Project Summary), 1814 (Primary HTS)]; assay type: functional; conditions: Homo sapiens
[18] = Counterscreen for activators of the function of SWI/SNF related, matrix associated, actin dependent regulator of chromatin, subfamily a, member 2 (SMARCA2, BRM): Luminescence-based cell-based high throughput dose response assay to identify non-selective compounds using the VP16 reporter assay.; assay type: functional
[19] = Luminescence Cell-Based Dose Confirmation HTS to Identify Activators of 5'UTR Stem-Loop Driven Alpha-Synuclein mRNA Translation in H4 Neuroglioblastoma Cells. [Related pubchem assays: 1829 (Project Summary), 1814 (Primary HTS)]; assay type: functional
[20] = molecular target: SWI/SNF-related matrix-associated actin-dependent regulator of chromatin subfamily A member 2 (Homo sapiens, UniProt P51531); test: Luminescence-based cell-based high throughput dose response assay to identify activators of the function of SWI/SNF related, matrix associated, actin dependent regulator of chromatin, subfamily a, member 2 (SMARCA2, BRM).; assay type: functional
Chain of SWI/SNF-related matrix-associated actin-dependent regulator of chromatin subfamily A member 2 (P51531 whole entry): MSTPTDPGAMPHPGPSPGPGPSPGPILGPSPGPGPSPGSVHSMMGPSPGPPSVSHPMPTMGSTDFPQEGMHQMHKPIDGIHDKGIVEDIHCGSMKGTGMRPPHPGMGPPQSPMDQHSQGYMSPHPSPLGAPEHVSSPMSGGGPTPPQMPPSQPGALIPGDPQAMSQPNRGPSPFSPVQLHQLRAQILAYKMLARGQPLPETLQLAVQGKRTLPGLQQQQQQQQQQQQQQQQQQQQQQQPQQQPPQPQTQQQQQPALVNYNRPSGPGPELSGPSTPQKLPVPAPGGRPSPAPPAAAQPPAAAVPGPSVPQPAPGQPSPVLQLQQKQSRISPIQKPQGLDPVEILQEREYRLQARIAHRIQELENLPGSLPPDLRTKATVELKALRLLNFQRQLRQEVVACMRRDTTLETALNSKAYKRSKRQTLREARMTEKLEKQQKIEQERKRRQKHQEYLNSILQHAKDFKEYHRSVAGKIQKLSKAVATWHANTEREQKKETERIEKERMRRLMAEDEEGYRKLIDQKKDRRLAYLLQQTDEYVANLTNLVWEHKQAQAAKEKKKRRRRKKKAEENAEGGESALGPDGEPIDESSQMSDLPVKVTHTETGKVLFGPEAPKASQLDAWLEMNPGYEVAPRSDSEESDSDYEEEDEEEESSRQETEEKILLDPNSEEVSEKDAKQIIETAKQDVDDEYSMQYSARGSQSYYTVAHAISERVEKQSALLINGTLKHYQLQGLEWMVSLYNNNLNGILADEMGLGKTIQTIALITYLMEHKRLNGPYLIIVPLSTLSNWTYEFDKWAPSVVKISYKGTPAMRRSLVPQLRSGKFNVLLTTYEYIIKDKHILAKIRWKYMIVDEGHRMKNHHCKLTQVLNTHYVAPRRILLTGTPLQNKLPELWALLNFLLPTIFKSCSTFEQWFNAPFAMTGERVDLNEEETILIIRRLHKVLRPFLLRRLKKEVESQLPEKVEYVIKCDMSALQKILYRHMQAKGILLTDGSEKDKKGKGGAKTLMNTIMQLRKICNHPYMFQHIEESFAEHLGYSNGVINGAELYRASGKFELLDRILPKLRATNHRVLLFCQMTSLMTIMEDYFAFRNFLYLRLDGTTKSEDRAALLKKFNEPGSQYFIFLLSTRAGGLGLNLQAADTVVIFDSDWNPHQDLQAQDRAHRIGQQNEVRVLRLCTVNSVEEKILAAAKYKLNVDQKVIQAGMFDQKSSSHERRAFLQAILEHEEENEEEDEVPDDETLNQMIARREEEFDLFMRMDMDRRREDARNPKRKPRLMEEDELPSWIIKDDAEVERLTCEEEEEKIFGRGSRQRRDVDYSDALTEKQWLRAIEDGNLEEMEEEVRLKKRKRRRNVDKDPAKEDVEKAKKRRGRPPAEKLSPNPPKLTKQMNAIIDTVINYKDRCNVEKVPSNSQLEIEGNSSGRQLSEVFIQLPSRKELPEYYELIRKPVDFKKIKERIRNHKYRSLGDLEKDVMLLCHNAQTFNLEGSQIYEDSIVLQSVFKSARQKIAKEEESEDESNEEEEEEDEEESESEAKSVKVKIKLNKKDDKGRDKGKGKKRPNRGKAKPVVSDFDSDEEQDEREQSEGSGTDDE

[21] = Luminescence Cell-Based Dose Response HTS to Identify Activators of Luciferase Translation or Activity in H4 […] Cells. [Related pubchem assays: 1829 (Project Summary), 1814 (Primary HTS)]; assay type: functional
SUMO-activating enzyme [22] = molecular target: T1, SUMO-activating enzyme (Homo sapiens, UniProt Q9UBT2); test: inhibitors of in vitro SUMOylation cascade, primary screen, biochemical, HTRF, uHTS (AID 2006); assay type: protein-complex assay
T1 sequence (Q9UBE0 whole entry): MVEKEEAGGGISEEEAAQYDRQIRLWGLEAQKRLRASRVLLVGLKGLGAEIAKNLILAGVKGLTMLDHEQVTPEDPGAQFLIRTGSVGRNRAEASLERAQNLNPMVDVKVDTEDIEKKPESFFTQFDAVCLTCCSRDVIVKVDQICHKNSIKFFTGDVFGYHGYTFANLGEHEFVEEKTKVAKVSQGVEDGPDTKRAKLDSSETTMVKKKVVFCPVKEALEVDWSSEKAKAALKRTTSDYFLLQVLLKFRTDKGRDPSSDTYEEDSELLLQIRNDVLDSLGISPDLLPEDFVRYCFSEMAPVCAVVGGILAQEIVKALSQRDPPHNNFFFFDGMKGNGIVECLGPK
T1 sequence (Q9UBT2 whole entry): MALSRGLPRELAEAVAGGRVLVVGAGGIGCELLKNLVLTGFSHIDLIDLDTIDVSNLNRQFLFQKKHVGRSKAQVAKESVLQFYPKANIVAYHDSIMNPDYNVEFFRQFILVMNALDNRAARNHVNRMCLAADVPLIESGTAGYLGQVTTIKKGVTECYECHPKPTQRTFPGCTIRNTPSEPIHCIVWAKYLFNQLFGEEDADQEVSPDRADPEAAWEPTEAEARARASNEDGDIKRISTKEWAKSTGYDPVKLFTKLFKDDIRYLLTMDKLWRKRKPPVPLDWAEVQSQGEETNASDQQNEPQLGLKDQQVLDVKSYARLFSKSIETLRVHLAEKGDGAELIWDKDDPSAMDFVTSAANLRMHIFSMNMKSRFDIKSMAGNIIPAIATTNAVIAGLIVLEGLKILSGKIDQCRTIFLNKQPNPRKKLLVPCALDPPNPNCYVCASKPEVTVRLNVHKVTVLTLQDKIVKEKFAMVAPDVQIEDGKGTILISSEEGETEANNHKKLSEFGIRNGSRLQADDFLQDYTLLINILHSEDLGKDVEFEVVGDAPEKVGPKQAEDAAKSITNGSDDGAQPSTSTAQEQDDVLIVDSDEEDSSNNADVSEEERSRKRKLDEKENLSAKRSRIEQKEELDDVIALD

SUMO-activating enzyme [23] = molecular target: T1, SUMO-activating enzyme; test: SUMOylation inhibitor hit validation, confirmation, SUMOylation inhibitor project, biochemical, AlphaScreen (AID 2018); assay type: functional
Albumin = Albumin (Bos taurus, UniProt P02769); test: Counterscreen for inhibitors of T-cell receptor (TCR)-CD3 interaction: Fluorescence-based biochemical high throughput dose response assay to identify inhibitors of T-cell receptor (TCR)-CD3 interaction using a TAMRA-labeled BSA probe.; assay type: functional
Chain of Albumin (P02769 whole entry): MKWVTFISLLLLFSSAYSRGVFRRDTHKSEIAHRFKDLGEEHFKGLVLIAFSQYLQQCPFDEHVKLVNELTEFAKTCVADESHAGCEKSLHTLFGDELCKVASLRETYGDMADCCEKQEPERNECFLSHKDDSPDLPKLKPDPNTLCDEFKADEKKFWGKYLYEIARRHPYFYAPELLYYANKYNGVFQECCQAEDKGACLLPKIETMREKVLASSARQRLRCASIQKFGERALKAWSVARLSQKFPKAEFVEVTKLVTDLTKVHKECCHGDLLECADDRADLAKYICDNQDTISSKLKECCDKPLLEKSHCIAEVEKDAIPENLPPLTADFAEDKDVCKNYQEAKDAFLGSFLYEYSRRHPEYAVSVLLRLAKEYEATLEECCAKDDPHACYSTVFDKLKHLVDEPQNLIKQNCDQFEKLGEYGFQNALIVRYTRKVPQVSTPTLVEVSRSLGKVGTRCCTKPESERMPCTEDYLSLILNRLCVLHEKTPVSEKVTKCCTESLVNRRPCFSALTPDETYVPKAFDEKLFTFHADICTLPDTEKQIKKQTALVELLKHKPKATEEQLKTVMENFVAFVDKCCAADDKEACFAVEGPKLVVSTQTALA

[24] = molecular target: Fructose-bisphosphate aldolase (Mycobacterium tuberculosis, UniProt P9WQA3); test: Fluorescence-based biochemical high throughput dose response assay for inhibitors of the fructose-bisphosphate aldolase (FBA) of M. tuberculosis.; assay type: functional
Chain of Fructose-bisphosphate aldolase (P9WQA3 whole entry): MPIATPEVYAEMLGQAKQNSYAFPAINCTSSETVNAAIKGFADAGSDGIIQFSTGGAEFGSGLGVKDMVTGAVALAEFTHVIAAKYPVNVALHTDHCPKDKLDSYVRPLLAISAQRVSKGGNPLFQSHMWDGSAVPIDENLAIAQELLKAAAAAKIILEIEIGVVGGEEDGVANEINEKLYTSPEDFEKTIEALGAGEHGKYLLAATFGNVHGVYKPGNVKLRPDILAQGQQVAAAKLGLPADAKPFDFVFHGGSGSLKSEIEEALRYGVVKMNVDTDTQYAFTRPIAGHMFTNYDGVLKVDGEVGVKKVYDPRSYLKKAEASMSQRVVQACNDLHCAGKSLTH

In the case of `CCOc1ccc(C(=O)NC(=S)Nc2ccccc2N2CCC(C)CC2)cc1[N+](=O)[O-]`, the AC50 (HeLa) is reported as > 52 µM (inactive), the EC50 [1] is reported as > 60 µM (not active) and the EC50 [2] is reported as 1.32 µM (active).
In the case of `O=C(Nc1cccc(-c2ccc(N3CCCCC3)nn2)c1)C(F)(F)F`, the AC50 [3] is reported as 43.6 µM (active), the AC50 [4] is reported as 2.61 µM (active) and the AC50 [5] is reported as 9.07 µM (active). For the same compound, the AC50 (Paired box protein Pax-8) was 3.04 µM (active), the AC50 [6] was 33.1 µM (active) and the AC50 [7] was 30.2 µM (active). The AC50 [8] was 9.6 µM (active), the AC50 [9] was 34.1 µM (active) and the AC50 [10] was 1.41 µM (active). For the same compound, the AC50 [11] was 3.47 µM (active), the AC50 [12] was 6.31 µM (active) and the AC50 [13] was 34.1 µM (active).
In the case of `O=C(NCCOc1ccccc1F)C1CC(=O)N(Cc2ccccc2)C1` (centres undefined), the AC50 [14] is reported as > 52 µM (inactive).
In the case of `CC(=O)Nc1ccc2c(c1)C(=O)N(C)[C@@H]1CC[C@H](CC(=O)NC3CCCCC3)O[C@H]1CO2`, the AC50 [15] is reported as 0.457 µM (active).
With `C[C@@H]1CN([C@@H](C)CO)C(=O)c2cc(NC(=O)Nc3cccc4ccccc34)ccc2O[C@@H](C)CCCCO[C@@H]1CN(C)CC1CCCCC1` the AC50 [16] was 30.5 µM (active), the AC50 [15] was 6.05 µM (active) and the AC50 [17] was 11.6 µM (active).
For `CC(C)c1ccc(/C=N/NC(=O)c2c(Cl)cnn2C)cc1`, the EC50 (H4) was 27.5 µM (active), the EC50 [18] was > 91.2 µM (inactive) and the EC50 [19] was 9.9 µM (active). For the same compound, the EC50 [20] was > 91.2 µM (inactive) and the EC50 [21] was 0.251 µM (active).
In the case of `Cc1c(NC(=S)N/N=C/c2cc([N+](=O)[O-])ccc2O)c(=O)n(-c2ccccc2)n1C`, the IC50 (SUMO-activating enzyme [22]) is reported as 11.4 µM (active), the IC50 (SUMO-activating enzyme [23]) is reported as 1.64 µM (active) and the IC50 (Albumin) is reported as > 94.1 µM (inactive).
For `Cc1ccc(-c2nc3ncccc3o2)cc1NC(=O)C(C)C`, the IC50 [24] was 1.5 µM (active).
